Results taken from PubChem BioAssay (NCI).
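Assay format: 96-well plates, 48-hour exposure. GI50 is the concentration that inhibits growth by half. TGI: total growth inhibition.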

What was measured:
Experiment in all cases: growth of human tumour cells (NCI), 48 h
[1] = tested on: NCI/ADR-RES ovarian
[2] = tested on: TK-10 renal
[3] = tested on: UO-31 renal
[4] = tested on: RXF 393 renal
[5] = tested on: PC-3 prostate
[6] = tested on: EKVX NSCLC
[7] = tested on: COLO 205 colon
[8] = tested on: MDA-MB-435
[9] = tested on: HOP-62 NSCLC
[10] = tested on: SK-MEL-28 melanoma
[11] = tested on: ACHN renal
[12] = tested on: U251 CNS
[13] = tested on: SF-295 CNS
[14] = tested on: NCI-H23 lung
[15] = tested on: SN12C renal
[16] = tested on: HCT-15 colon
[17] = tested on: DU-145 prostate
[18] = tested on: NCI-H226 lung
[19] = tested on: T-47D breast
[20] = tested on: HL-60(TB) leukemia
[21] = tested on: SK-MEL-5 melanoma
[22] = tested on: HS 578T breast
[23] = tested on: SK-OV-3 ovarian
[24] = tested on: OVCAR-3 ovarian
[25] = tested on: 786-0 renal
[26] = tested on: A549 NSCLC
[27] = tested on: A498 renal
[28] = tested on: MCF7 breast
[29] = tested on: SNB-19 CNS
[30] = tested on: OVCAR-5 ovarian
[31] = tested on: LOX IMVI melanoma
[32] = tested on: RPMI-8226 leukemia
[33] = tested on: CAKI-1 renal
[34] = tested on: OVCAR-4 ovarian
[35] = tested on: UACC-62 melanoma
[36] = tested on: K-562 leukemia
[37] = tested on: SNB-75 CNS
[38] = tested on: IGROV1 ovarian
[39] = tested on: MDA-MB-231 breast
[40] = tested on: SF-539 CNS
[41] = tested on: MOLT-4 leukemia
[42] = tested on: SK-MEL-2 melanoma
[43] = tested on: MALME-3M melanoma
[44] = tested on: NCI-H522 lung
[45] = tested on: BT-549 breast
[46] = tested on: HT29 colon
[47] = tested on: KM12 colon
[48] = tested on: CCRF-CEM leukemia
[49] = tested on: HOP-92 NSCLC
[50] = tested on: SW-620 colon
[51] = tested on: NCI-H460 lung
[52] = tested on: UACC-257 melanoma
[53] = tested on: HCT-116 colon
[54] = tested on: HCC-2998 colon
[55] = tested on: SF-268 CNS
[56] = tested on: M14 melanoma
[57] = tested on: OVCAR-8 ovarian

With COc1ccc(C2C3=C(COC3=O)N(CCO)c3cc4c(cc32)CCC4)cc1 (centres undefined) the GI50 [1] was 3.89 µM, the TGI [1] was 25.8 µM and the GI50 [2] was 3.36 µM. For the same molecule, the TGI [2] was 39.9 µM, the GI50 [3] was 5.86 µM and the TGI [3] was greater than 50 µM. The GI50 [4] was 4.24 µM, the TGI [4] was 27.1 µM and the GI50 [5] was 6.22 µM. It also gave a TGI [5] greater than 50 µM, a GI50 [6] of 13.5 µM and a TGI [6] greater than 50 µM. It also gave a GI50 [7] of 6.2 µM, a TGI [7] greater than 50 µM and a GI50 [8] of 1.13 µM. The TGI [8] was 5.09 µM, the GI50 [9] was 9.02 µM and the TGI [9] was greater than 50 µM. For the same molecule, the GI50 [10] was 5.31 µM, the TGI [10] was greater than 50 µM and the GI50 [11] was 24 µM. For the same molecule, the TGI [11] was greater than 50 µM, the GI50 [12] was 3.16 µM and the TGI [12] was greater than 50 µM. It also gave a GI50 [13] of 1.49 µM, a TGI [13] of 6.7 µM and a GI50 [14] of 7.05 µM. For the same molecule, the TGI [14] was greater than 50 µM, the GI50 [15] was 19 µM and the TGI [15] was greater than 50 µM. It also gave a GI50 [16] of 6.04 µM, a TGI [16] greater than 50 µM and a GI50 [17] of 5.04 µM. The TGI [17] was 20.2 µM, the GI50 [18] was 21.4 µM and the TGI [18] was greater than 50 µM. The GI50 [19] was 3.87 µM, the TGI [19] was greater than 50 µM and the GI50 [20] was 1.18 µM. The TGI [20] was 3.98 µM, the GI50 [21] was 2.38 µM and the TGI [21] was greater than 50 µM. It also gave a GI50 [22] of 4.11 µM, a TGI [22] of 42 µM and a GI50 [23] of 8.78 µM. For the same molecule, the TGI [23] was greater than 50 µM, the GI50 [24] was 1.07 µM and the TGI [24] was 2.97 µM. For the same molecule, the GI50 [25] was 4.8 µM, the TGI [25] was greater than 50 µM and the GI50 [26] was 3.84 µM. The TGI [26] was greater than 50 µM, the GI50 [27] was 2.36 µM and the TGI [27] was greater than 50 µM. For the same molecule, the GI50 [28] was 1.86 µM, the TGI [28] was greater than 50 µM and the GI50 [29] was 7.48 µM. For the same molecule, the TGI [29] was greater than 50 µM, the GI50 [30] was greater than 50 µM and the TGI [30] was greater than 50 µM. The GI50 [31] was 3.1 µM, the TGI [31] was greater than 50 µM and the GI50 [32] was 11.4 µM. The TGI [32] was greater than 50 µM, the GI50 [33] was 3.1 µM and the TGI [33] was 27.7 µM. It also gave a GI50 [34] of 5.46 µM, a TGI [34] greater than 50 µM and a GI50 [35] of 2.65 µM. The TGI [35] was greater than 50 µM, the GI50 [36] was 1.69 µM and the TGI [36] was greater than 50 µM. For the same molecule, the GI50 [37] was 1.46 µM, the TGI [37] was 13.7 µM and the GI50 [38] was 2.15 µM. For the same molecule, the TGI [38] was 18.4 µM, the GI50 [39] was 10.9 µM and the TGI [39] was greater than 50 µM. For the same molecule, the GI50 [40] was 5.09 µM, the TGI [40] was 28.5 µM and the GI50 [41] was 2.2 µM. The TGI [41] was greater than 50 µM, the GI50 [42] was 1.45 µM and the TGI [42] was 4.74 µM. The GI50 [43] was 3.06 µM, the TGI [43] was greater than 50 µM and the GI50 [44] was 0.808 µM. For the same molecule, the TGI [44] was 3.73 µM, the GI50 [45] was 2.38 µM and the TGI [45] was 25.2 µM. The GI50 [46] was 1.7 µM, the TGI [46] was 24.9 µM and the GI50 [47] was 2.31 µM. For the same molecule, the TGI [47] was greater than 50 µM, the GI50 [48] was 3.98 µM and the TGI [48] was greater than 50 µM. The GI50 [49] was greater than 50 µM, the TGI [49] was greater than 50 µM and the GI50 [50] was 2.17 µM. It also gave a TGI [50] greater than 50 µM, a GI50 [51] of 2.37 µM and a TGI [51] of 26.9 µM. It also gave a GI50 [52] of 4.34 µM, a TGI [52] greater than 50 µM and a GI50 [53] of 2.12 µM. For the same molecule, the TGI [53] was greater than 50 µM, the GI50 [54] was 5.76 µM and the TGI [54] was 25.8 µM. The GI50 [55] was 7.05 µM, the TGI [55] was greater than 50 µM and the GI50 [56] was 2.32 µM. It also gave a TGI [56] of 21.1 µM, a GI50 [57] of 14.2 µM and a TGI [57] greater than 50 µM.
